Assay results from patent US20040052750A1, “Compositions for prevention and alleviation of skin wrinkles” (priority 2000, published 2004).
Marks after values point to notes of the source that are not given here.

Tests used:
[1] = system: fibroblasts derived from a human; assay: Promoting collagen production in fibroblasts (3H-proline incorporation into collagenase-sensitive protein); type: cell-based; settings: control = 100%
Experimental: The experimental protocol in detail is as follows.
Human-derived fibroblasts were transferred to a 24 well plate and cultured in a medium containing 10% fetal bovine serum (FBS) for 24 hours, followed by washing twice with phosphate buffered saline. […] After the incubation was terminated, cells from each group were harvested and two fractions of each culture were prepared. One fraction from each culture was treated with collagenase. To all fractions was added trichloroacetic acid to precipitate proteins. The amount of radioactivity incorporated into collagenase-sensitive protein was measured and compared with that of the other fraction which was not treated with collagenase. The difference in radioactivity was attributed to the promoting effect of the compound.

rat skin = assay: Promotion of collagen production in rat skin (hydroxyproline in implanted PVA sponge); type: in vivo, SD rats; settings: 200 μl every day for 10 days, control = 100%
Experimental: In brief, 5-week male SD rats were grouped with 5 rats per group. The rats were each incised 1 cm in the center of their abdomens and PVA sponges (Unipoint ind.) were inserted therein. After suturing, as for experimental groups, respective active ingredients to be examined were applied to the PVA sponge-embeded regions i n a volume o f 200 μl every day for 10 days. Upon autopsy, the PVA sponge was removed to quantify hydroxyproline. The PVA sponge was added with 4 ml of 6 N HCl, hydrolized at 130° C. for 3 hours and was subjected to complete drying. 50 μl of methanol was added and the solution was incubated at 110° C. until HCl was removed. 1.2 ml of 50% isopropanol was added to dissolve the remaining precipitate. 200 μl of chloramine-T (sodium p-toluensulfochloramide trihydrate) solution was added while stirring, and let stand for 10 min. After adding 1.2 ml of Ehrlich reagent and mixing, the solution was incubated at 50° C. for 90 min. The resulting solution was cooled to room temperature and absorbance at 558 nm was measured. Hydroxyproline standard solutions were prepared by dissolving 1 mg hydroxyproline in 1 ml HCl and diluting it to concentrations of 0, 0.2, 0.4, 0.8, 1 mg each relative to 25 μl of 6 N HCl. The standard solutions were hydrolyzed at 130° C. for 3 hours. The quantified value of hydroxyproline, relative to hydroxyproline value (100%) of the control group which was applied with solvent only, are shown in Table 2.

hairless mice [2] = assay: Inhibiting the generation of wrinkles in hairless mice (simulated sunlight); type: in vivo; settings: 10 per group
Experimental: 6-week hairless mice were placed into 21 experimental groups and 3 control groups, with 10 rats per group. […] The experimental protocol in detail is as follows. Hairless mice were radiated using simulated sunlight at a dose of 2 MED (double Minimal Erythema Dose) 3 days a week for […], thereby generating wrinkles. Respective active ingredients or the solvent only were applied twice every day (specifically, on radiation days, the application was performed at 30 min before and after the radiation), at a volume of 100 μl each for 10 weeks from the first radiation day. Degrees of inhibition of generated wrinkles were determined. The determination was performed by visual observation with naked eyes and photography.

hairless mice [3] = assay: Alleviating photo-induced wrinkles in hairless mice; type: in vivo; settings: twice a day for 6 weeks, 10 per group
Experimental: Mice were placed into 21 experimental groups and 3 control groups, with 10 rats per group. […] The experimental protocol is as follows. Hairless mice were radiated using a simulated sunlight at a dose of 2 MED (double Minimal Erythema Dose) 3 days a week for 10 weeks, thereby generating wrinkles. Then, respective active ingredients or the solvent only were applied at a volume of 100 μl each, twice a day for 6 weeks. Degrees of wrinkle reduction were determined. The determination was performed by visually observing the compound-applied region with naked eyes, and the region was photographed. The degrees of alleviation of wrinkles in the compound-treatment groups (experimental groups) were compared with those of the control group and were determined as one of 4 stages, that is, none (Score 0), slight (Score 1), moderate (Score 2) and high (Score 3), and the corresponding mice were counted.

Q: For O=C1NC(=O)C(c2ccccc2)(c2ccccc2)N1 [Phenytoin], which “Effect of promoting collagen production in fibroblasts (rate of collagen production)” value (“Effect … (rate of collagen production)” for short) ([1]; 10^-5 M) is on record?
A: 381.54%

Q: What about the “Effect … (rate of collagen production)” value ([1]; 10^-6 M) of the same compound?
A: 360.65%

Q: What about the “Effect … (rate of collagen production)” value ([1]; 10^-7 M) of the same compound?
A: 298.35%

Q: What about the “Effect … (rate of collagen production)” value ([1]; 10^-8 M) of the same compound?
A: 215.28* %

Q: And the “Effect of promoting collagen production in animal skin (hydroxyproline value vs control)” value (“Effect … (hydroxyproline value vs control)” below) (rat skin; 10^-5 M)?
A: 182.47%

Q: What about the “Effect … (hydroxyproline value vs control)” value (rat skin; 10^-6 M) of the same compound?
A: 167.41%

Q: What about the “Effect … (hydroxyproline value vs control)” value (rat skin; 10^-7 M) of the same compound?
A: 143.51%

Q: What about the “Effect … (hydroxyproline value vs control)” value (rat skin; 10^-8 M) of the same compound?
A: 132.58* %

Q: What about the “Inhibition of wrinkles, Score 0 (none)” value (hairless mice [2]; 10^-3 M) of the same compound?
A: 0 number of mice

Q: And the “Inhibition of wrinkles, Score 1 (slight)” value (hairless mice [2]; 10^-3 M)?
A: 0 number of mice

Q: What about the “Inhibition of wrinkles, Score 2 (moderate)” value (shortened to “Inhibition … (moderate)”) (hairless mice [2]; 10^-3 M) of the same compound?
A: 3 number of mice

Q: What about the “Inhibition of wrinkles, Score 3 (high)” value (hairless mice [2]; 10^-3 M) of the same compound?
A: 7 number of mice

Q: What about the “Inhibition of wrinkles, Score 0 (none)” value (hairless mice [2]; 10^-5 M) of the same compound?
A: 0 number of mice

Q: And the “Inhibition of wrinkles, Score 1 (slight)” value (hairless mice [2]; 10^-5 M)?
A: 0 number of mice

Q: What about the “Inhibition … (moderate)” value (hairless mice [2]; 10^-5 M) of the same compound?
A: 3 number of mice

Q: And the “Inhibition of wrinkles, Score 3 (high)” value (hairless mice [2]; 10^-5 M)?
A: 7 number of mice

Q: And the “Inhibition of wrinkles, Score 0 (none)” value (hairless mice [2]; 10^-8 M)?
A: 0 number of mice

Q: What about the “Inhibition of wrinkles, Score 1 (slight)” value (hairless mice [2]; 10^-8 M) of the same compound?
A: 0 number of mice

Q: What about the “Inhibition … (moderate)” value (hairless mice [2]; 10^-8 M) of the same compound?
A: 2 number of mice

Q: What about the “Inhibition of wrinkles, Score 3 (high)” value (hairless mice [2]; 10^-8 M) of the same compound?
A: 8 number of mice

Q: What about the “Reduction of wrinkles, Score 0 (none)” value (hairless mice [3]; 10^-3 M) of the same compound?
A: 0 number of mice

Q: What about the “Reduction of wrinkles, Score 1 (slight)” value (hairless mice [3]; 10^-3 M) of the same compound?
A: 0 number of mice

Q: And the “Reduction of wrinkles, Score 2 (moderate)” value (shortened to “Reduction … (moderate)”) (hairless mice [3]; 10^-3 M)?
A: 3 number of mice

Q: And the “Reduction of wrinkles, Score 3 (high)” value (hairless mice [3]; 10^-3 M)?
A: 7 number of mice

Q: And the “Reduction of wrinkles, Score 0 (none)” value (hairless mice [3]; 10^-5 M)?
A: 0 number of mice

Q: And the “Reduction of wrinkles, Score 1 (slight)” value (hairless mice [3]; 10^-5 M)?
A: 1 number of mice

Q: What about the “Reduction … (moderate)” value (hairless mice [3]; 10^-5 M) of the same compound?
A: 3 number of mice

Q: What about the “Reduction of wrinkles, Score 3 (high)” value (hairless mice [3]; 10^-5 M) of the same compound?
A: 6 number of mice

Q: What about the “Reduction of wrinkles, Score 0 (none)” value (hairless mice [3]; 10^-8 M) of the same compound?
A: 0 number of mice

Q: What about the “Reduction of wrinkles, Score 1 (slight)” value (hairless mice [3]; 10^-8 M) of the same compound?
A: 1 number of mice

Q: And the “Reduction … (moderate)” value (hairless mice [3]; 10^-8 M)?
A: 2 number of mice

Q: What about the “Reduction of wrinkles, Score 3 (high)” value (hairless mice [3]; 10^-8 M) of the same compound?
A: 7 number of mice
